In general, IC50 refers to the midpoint of a concentration-inhibition curve.

This note sets out measurements from US20250059172A1, “INDAZOLE COMPOUND AND PHARMACEUTICAL” (NIPPON SHINYAKU CO., LTD., priority 2021, published 2025).

The subject of assay [1] is human A549 cells. As to the kind of experiment: Inhibition test of PGE2 production using human A549 cells. In kind it is cell-based. Particulars: IL-1β stimulated A549 cells, 24 h, PGE2 by HTRF, read-out: A549 cell inhibition of PGE2 production IC50. The procedure: 100 μL of RPMI medium (Sigma) comprising 10% FBS and human A549 cells was seeded in a 96-well plate to […] cells per well, and incubated overnight. The medium was then removed and washed with phosphate-buffered saline, and added to a DMSO solution of the test compound or RPMI medium comprising 3% FBS with DMSO to a final concentration of 0.1% DMSO. After incubation for 60 minutes, IL-1P (5 ng/well, BioLegend) was added to the solution. After incubation at 37° C. for 24 h, PGE2 in the medium was quantified using the HTRF kit (Cisbio International) and PGF2a was also quantified using the EIA kit (Cayman chemical). Solutions without the test compound were used as positive controls, and solutions without the test compound and IL-1β were used as negative controls. 100% activity was defined as production of PGE2 and PGF2a in the positive control minus those in the negative control. IC50 values were then determined using standard methods.
(Time-resolved FRET reads energy transfer from a long-lived donor to a nearby acceptor.)

Assay [2] concerns the target human mPGES-1 (Homo sapiens (Human), UniProt O14684). As to the kind of experiment: mPGES-1 inhibitory activity test. In kind it is biochemical. As to conditions: microsomes of CHO-K1 cells expressing human mPGES-1, PGH2 1 μM, PGE2 by HTRF; read-out: mPGES-1 inhibition (IC50 nM). As to the method: mPGES-1 microsomal specimens were prepared by transiently transfecting CHO-K1 cells (DS Pharma Biomedical Co. Ltd) with a plasmid encoding human mPGES-1 cDNA using FuGENE 6 Transfection Reagent (Promega). The prepared mPGES-1 microsome specimens were diluted in potassium phosphate buffer of pH 7.4 comprising 2.5 mM reduced glutathione (Sigma-Aldrich), DMSO solution of a test compound or DMSO was added to a final concentration of 1% of DMSO, and then incubated at 4° C. for 20 minutes. The enzymatic reaction was then initiated by adding a solution of PGH2 (Cayman chemical) substrate of a final concentration 1 μM and incubated at 4° C. for 60 seconds. The reaction was terminated by adding a solution of ferric chloride (STREM CHEMICALS) and citric acid (Wako Pure Chemical Industries) salt to a final concentration of 5 mg/mL and 250 mM, respectively. The formed PGE2 was quantified using the HTRF kit (Cisbio International). Solutions without the test compound were used as positive controls, and solutions without the test compound and microsomal specimens were used as negative controls. 100% activity was defined as production of PGE2 in the positive control minus that in the negative control. The percentage inhibition of production of PGE2 at final concentrations of 10 nM and 100 nM of the test compound was then calculated, or IC50 values were determined using standard methods.

Where a name gives a salt, the structure may show the parent alone.

Chain of human mPGES-1 (O14684 whole entry): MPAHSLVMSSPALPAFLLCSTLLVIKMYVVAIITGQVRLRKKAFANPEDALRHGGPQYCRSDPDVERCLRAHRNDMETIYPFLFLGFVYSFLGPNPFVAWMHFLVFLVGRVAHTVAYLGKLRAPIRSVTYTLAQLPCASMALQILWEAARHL

`O=C(Nc1cccc2c1cnn2-c1ccc(C(F)(F)F)cc1)c1cc(CNC(=O)C2CC2)ccc1Cl` [Example 1, 2-Chloro-5-{[(cyclopropylcarbonyl)amino]methyl}-N-{1-[4-(trifluoromethyl)phenyl]-1H-indazol-4-yl}benzamide]: the IC50 in assay [1] amounted to 4.5 nM; in assay [2], 1.5 nM.
On to `O=C(Nc1cccc2c1cnn2-c1ccccc1)c1cc(CNC(=O)C2CC2)ccc1Cl` [Example 2, 2-Chloro-5-{[(cyclopropylcarbonyl)amino]methyl}-N-(1-phenyl-1H-indazol-4-yl)benzamide], for which the IC50 in assay [1] stood at 6.3 nM; in assay [2] it was 0.2 nM.
For `O=C(Nc1cccc2c1cnn2-c1cccc(C(F)(F)F)c1)c1cc(CNC(=O)C2CC2)ccc1Cl` [Example 3, 2-Chloro-5-{[(cyclopropylcarbonyl)amino]methyl}-N-{1-[3-(trifluoromethyl)phenyl]-1H-indazol-4-yl}benzamide] the same measures were 0.7 nM and 1.2 nM.
For the molecule `O=C(Nc1cccc2c1cnn2-c1cccnc1)c1cc(CNC(=O)C2CC2)ccc1Cl` [Example 4, 2-Chloro-5-{[(cyclopropylcarbonyl)amino]methyl}-N-[1-(pyridin-3-yl)-1H-indazol-4-yl]benzamide hydrochloride], in assay [2], the IC50 was 18.8 nM.
On to `O=C(Nc1cccc2c1cnn2-c1ccncc1)c1cc(CNC(=O)C2CC2)ccc1Cl` [Example 5, 2-Chloro-5-{[(cyclopropylcarbonyl)amino]methyl}-N-[1-(pyridin-4-yl)-1H-indazol-4-yl]benzamide hydrochloride], for which the 50% inhibitory concentration (IC50) in assay [1] was determined as 688 nM; in assay [2], 9.6 nM.
For `Cc1ccc(-n2ncc3c(NC(=O)c4cc(CNC(=O)C5CC5)ccc4Cl)cccc32)cc1` [Example 6, 2-Chloro-5-{[(cyclopropylcarbonyl)amino]methyl}-N-[1-(4-methylphenyl)-1H-indazol-4-yl]benzamide], the half-inhibitory concentration (IC50) in assay [1] was found to be 0.6 nM; in assay [2] it was 1.3 nM.
With `Cc1cccc(-n2ncc3c(NC(=O)c4cc(CNC(=O)C5CC5)ccc4Cl)cccc32)c1` [Example 7, 2-Chloro-5-{[(cyclopropylcarbonyl)amino]methyl}-N-[1-(3-methylphenyl)-1H-indazol-4-yl]benzamide], the IC50 in assay [1] came to 1.6 nM; in assay [2], 1.8 nM.
The matching figures for `O=C(Nc1cccc2c1cnn2-c1ccccn1)c1cc(CNC(=O)C2CC2)ccc1Cl` [Example 8, 2-Chloro-5-{[(cyclopropylcarbonyl)amino]methyl}-N-[1-(pyridin-2-yl)-1H-indazol-4-yl]benzamide]: 11.3 nM and 3.9 nM.
The matching figures for `Cc1ccccc1-n1ncc2c(NC(=O)c3cc(CNC(=O)C4CC4)ccc3Cl)cccc21` [Example 9, 2-Chloro-5-{[(cyclopropylcarbonyl)amino]methyl}-N-[1-(2-methylphenyl)-1H-indazol-4-yl]benzamide]: 4.1 nM and 2.2 nM.
In the case of `Cc1ccc(-n2ncc3c(NC(=O)c4cc(CNC(=O)C5CC5)ccc4Cl)cccc32)cn1` [Example 10, 2-Chloro-5-{[(cvclopropylcarbonyl)amino]methyl}-N-[1-(6-methylpyridin-3-yl)-1H-indazol-4-yl]benzamide hydrochloride], the IC50 turned out to be 31.2 nM in assay [1] and 10 nM in assay [2].
`O=C(Nc1cccc2c1cnn2-c1cncc(C(F)(F)F)c1)c1cc(CNC(=O)C2CC2)ccc1Cl` [Example 11, 2-Chloro-5-{[(cvclopropylcarbonyl)amino]methyl}-N-{1-[5-(trifluoromethyl)pyridin-3-yl]-1H-indazol-4-yl}benzamide]: the concentration for half-maximal inhibition (IC50) in assay [1] came out at 3.4 nM; in assay [2], 2.9 nM.
Regarding `CC#CC(=O)NCc1ccc(Cl)c(C(=O)Nc2cccc3c2cnn3-c2ccc(C(F)(F)F)cc2)c1` [Example 42, 5-[(2-Butynoylamino)methyl]-2-chloro-N-{1-[4-(trifluoromethyl)phenyl]-1H-indazol-4-yl}benzamide], the IC50 in assay [2] turned out to be 391 nM.
